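Compound exposure: 48 hours, 5 concentrations, 96-well plates. TGI denotes the concentration required for complete inhibition of growth.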
Key:
Assay in all cases: inhibition of tumour cell growth, NCI panel, 48 h
PC-3 prostate = test system: PC-3 prostate
MDA-N = test system: MDA-N
HOP-92 NSCLC = test system: HOP-92 NSCLC
MDA-MB-435 = test system: MDA-MB-435
T-47D breast = test system: T-47D breast
SK-OV-3 ovarian = test system: SK-OV-3 ovarian
SF-539 CNS = test system: SF-539 CNS
OVCAR-5 ovarian = test system: OVCAR-5 ovarian
MDA-MB-231 breast = test system: MDA-MB-231 breast
SF-295 CNS = test system: SF-295 CNS
SK-MEL-28 melanoma = test system: SK-MEL-28 melanoma
SR leukemia = test system: SR leukemia
A498 renal = test system: A498 renal
COLO 205 colon = test system: COLO 205 colon
NCI-H23 lung = test system: NCI-H23 lung
CCRF-CEM leukemia = test system: CCRF-CEM leukemia
U251 CNS = test system: U251 CNS
BT-549 breast = test system: BT-549 breast
TK-10 renal = test system: TK-10 renal
DU-145 prostate = test system: DU-145 prostate
OVCAR-4 ovarian = test system: OVCAR-4 ovarian
MOLT-4 leukemia = test system: MOLT-4 leukemia
EKVX NSCLC = test system: EKVX NSCLC
LOX IMVI melanoma = test system: LOX IMVI melanoma
NCI/ADR-RES ovarian = test system: NCI/ADR-RES ovarian
OVCAR-8 ovarian = test system: OVCAR-8 ovarian
CAKI-1 renal = test system: CAKI-1 renal
HT29 colon = test system: HT29 colon
SW-620 colon = test system: SW-620 colon
OVCAR-3 ovarian = test system: OVCAR-3 ovarian
KM12 colon = test system: KM12 colon
MALME-3M melanoma = test system: MALME-3M melanoma
HOP-62 NSCLC = test system: HOP-62 NSCLC
HS 578T breast = test system: HS 578T breast
SNB-75 CNS = test system: SNB-75 CNS
NCI-H226 lung = test system: NCI-H226 lung
HL-60(TB) leukemia = test system: HL-60(TB) leukemia
K-562 leukemia = test system: K-562 leukemia
UACC-257 melanoma = test system: UACC-257 melanoma
RXF 393 renal = test system: RXF 393 renal
MCF7 breast = test system: MCF7 breast
SN12C renal = test system: SN12C renal
HCT-116 colon = test system: HCT-116 colon
SNB-19 CNS = test system: SNB-19 CNS
A549 NSCLC = test system: A549 NSCLC
NCI-H522 lung = test system: NCI-H522 lung
UACC-62 melanoma = test system: UACC-62 melanoma
M14 melanoma = test system: M14 melanoma
ACHN renal = test system: ACHN renal
SK-MEL-2 melanoma = test system: SK-MEL-2 melanoma
SF-268 CNS = test system: SF-268 CNS
UO-31 renal = test system: UO-31 renal
SK-MEL-5 melanoma = test system: SK-MEL-5 melanoma
IGROV1 ovarian = test system: IGROV1 ovarian
HCT-15 colon = test system: HCT-15 colon
RPMI-8226 leukemia = test system: RPMI-8226 leukemia
NCI-H460 lung = test system: NCI-H460 lung
HCC-2998 colon = test system: HCC-2998 colon
786-0 renal = test system: 786-0 renal

SMILES: CCCCN1CN2C(=O)C(C(=O)OCC)C(=O)c3sc4nc(SC)nc1c4c32 (stereo not given)
- TGI (PC-3 prostate): 39.5 µM
- TGI (MDA-N): 32.3 µM
- TGI (HOP-92 NSCLC): 30.5 µM
- TGI (MDA-MB-435): 34 µM
- TGI (T-47D breast): 42.7 µM
- TGI (SK-OV-3 ovarian): 31.7 µM
- TGI (SF-539 CNS): 33.8 µM
- TGI (OVCAR-5 ovarian): 32.6 µM
- TGI (MDA-MB-231 breast): 32.6 µM
- TGI (SF-295 CNS): 30.8 µM
- TGI (SK-MEL-28 melanoma): 34 µM
- TGI (SR leukemia): 67 µM
- TGI (A498 renal): 16.8 µM
- TGI (COLO 205 colon): 35.5 µM
- TGI (NCI-H23 lung): 33.6 µM
- TGI (CCRF-CEM leukemia): 83.9 µM
- TGI (U251 CNS): 33.7 µM
- TGI (BT-549 breast): 30.6 µM
- TGI (TK-10 renal): 28.4 µM
- TGI (DU-145 prostate): 35.4 µM
- TGI (OVCAR-4 ovarian): 33.4 µM
- TGI (MOLT-4 leukemia): 66.3 µM
- TGI (EKVX NSCLC): 32.2 µM
- TGI (LOX IMVI melanoma): 38.1 µM
- TGI (NCI/ADR-RES ovarian): 37.1 µM
- TGI (OVCAR-8 ovarian): 36.8 µM
- TGI (CAKI-1 renal): 32.9 µM
- TGI (HT29 colon): 40.5 µM
- TGI (SW-620 colon): 35.6 µM
- TGI (OVCAR-3 ovarian): 34.6 µM
- TGI (KM12 colon): 36 µM
- TGI (MALME-3M melanoma): 30.2 µM
- TGI (HOP-62 NSCLC): 30.5 µM
- TGI (HS 578T breast): 19.9 µM
- TGI (SNB-75 CNS): 35.7 µM
- TGI (NCI-H226 lung): 34 µM
- TGI (HL-60(TB) leukemia): > 100 µM
- TGI (K-562 leukemia): 77.9 µM
- TGI (UACC-257 melanoma): 35.8 µM
- TGI (RXF 393 renal): 38.5 µM
- TGI (MCF7 breast): 39.9 µM
- TGI (SN12C renal): 34.1 µM
- TGI (HCT-116 colon): 30.6 µM
- TGI (SNB-19 CNS): 34.8 µM
- TGI (A549 NSCLC): 39.9 µM
- TGI (NCI-H522 lung): 35.4 µM
- TGI (UACC-62 melanoma): 31.5 µM
- TGI (M14 melanoma): 40.1 µM
- TGI (ACHN renal): 30.7 µM
- TGI (SK-MEL-2 melanoma): 36.6 µM
- TGI (SF-268 CNS): 39.8 µM
- TGI (UO-31 renal): 37.4 µM
- TGI (SK-MEL-5 melanoma): 24.8 µM
- TGI (IGROV1 ovarian): 33.5 µM
- TGI (HCT-15 colon): 38 µM
- TGI (RPMI-8226 leukemia): 42.7 µM
- TGI (NCI-H460 lung): 40.2 µM

SMILES: Oc1cc2c3c(c1)CCCN3CCC2
- TGI (PC-3 prostate): > 10 µM
- TGI (MDA-N): > 10 µM
- TGI (HOP-92 NSCLC): > 10 µM
- TGI (MDA-MB-435): > 10 µM
- TGI (T-47D breast): > 10 µM
- TGI (SK-OV-3 ovarian): > 10 µM
- TGI (SF-539 CNS): > 10 µM
- TGI (OVCAR-5 ovarian): > 10 µM
- TGI (MDA-MB-231 breast): > 10 µM
- TGI (SF-295 CNS): > 10 µM
- TGI (SK-MEL-28 melanoma): > 10 µM
- TGI (SR leukemia): > 10 µM
- TGI (A498 renal): > 10 µM
- TGI (COLO 205 colon): > 10 µM
- TGI (NCI-H23 lung): > 10 µM
- TGI (CCRF-CEM leukemia): > 10 µM
- TGI (U251 CNS): > 10 µM
- TGI (BT-549 breast): > 10 µM
- TGI (TK-10 renal): > 10 µM
- TGI (DU-145 prostate): > 10 µM
- TGI (OVCAR-4 ovarian): > 10 µM
- TGI (MOLT-4 leukemia): > 10 µM
- TGI (HCC-2998 colon): > 10 µM
- TGI (EKVX NSCLC): > 10 µM
- TGI (LOX IMVI melanoma): > 10 µM
- TGI (NCI/ADR-RES ovarian): > 10 µM
- TGI (OVCAR-8 ovarian): > 10 µM
- TGI (CAKI-1 renal): > 10 µM
- TGI (HT29 colon): > 10 µM
- TGI (SW-620 colon): > 10 µM
- TGI (OVCAR-3 ovarian): > 10 µM
- TGI (KM12 colon): > 10 µM
- TGI (MALME-3M melanoma): > 10 µM
- TGI (786-0 renal): > 10 µM
- TGI (HOP-62 NSCLC): > 10 µM
- TGI (HS 578T breast): > 10 µM
- TGI (SNB-75 CNS): > 10 µM
- TGI (NCI-H226 lung): > 10 µM
- TGI (HL-60(TB) leukemia): > 10 µM
- TGI (K-562 leukemia): > 10 µM
- TGI (UACC-257 melanoma): > 10 µM
- TGI (RXF 393 renal): > 10 µM
- TGI (MCF7 breast): > 10 µM
- TGI (SN12C renal): > 10 µM
- TGI (HCT-116 colon): > 10 µM
- TGI (SNB-19 CNS): > 10 µM
- TGI (A549 NSCLC): > 10 µM
- TGI (NCI-H522 lung): > 10 µM
- TGI (UACC-62 melanoma): > 10 µM
- TGI (M14 melanoma): > 10 µM
- TGI (ACHN renal): > 10 µM
- TGI (SK-MEL-2 melanoma): > 10 µM
- TGI (SF-268 CNS): > 10 µM
- TGI (SK-MEL-5 melanoma): > 10 µM
- TGI (IGROV1 ovarian): > 10 µM
- TGI (HCT-15 colon): > 10 µM
- TGI (RPMI-8226 leukemia): > 10 µM
- TGI (NCI-H460 lung): > 10 µM
